Data on one compound can be found in patent US20250353859A1, “COMPOUNDS AS CCR6 INHIBITORS” (Hoffmann-La Roche Inc., priority 2023, published 2025).

SMILES strings stand for the structures.

The test system of one assay is Human CD4+ T cells. Kind of assay: CD4+ T cells chemotaxis assay towards CCL20. Format: cell-based. As to conditions: CD4+ T cell, 3 h. The text has this:
Human CD4+ T cells were isolated from buffy coats of healthy donors using aCD4+ T Cell Isolation Kit(Miltenyi Biotec 130-096-533). Isolated T cells were stimulated overnight with anti-CD3 and anti-CD28 antibodies (Biolegend 300314/302934) in growth medium (RPMI1640, 10% heat-inactivated FBS, 1× pen/strep (Gibco 15140)). For the chemotaxis assay, Corning Transwell plates were used with a pore size of 5 m (Corning 3388). T cells were counted and diluted to 6*10^6 cells/ml in chemotaxis medium (RPMI1640, 1% BSA, pen/strep). Compounds were four-fold serially diluted in DMSO. Further dilutions were made in chemotaxis medium. Cells were incubated with test compounds for 30 min at 37° C. prior to initiation of the assay (3*10^6 cells/ml). Final DMSO concentration in the assay was 0.2%. Wells of the Transwell plates were filled with 200 μl chemotaxis medium containing 150 ng/ml CCL20 (R&D systems 360-MP). 50 μl of the cell/compound suspension was added to the inserts of the Transwell plates (150,000 cells/insert). The Transwell plates were placed in an incubator at 37° C., 5% CO2 for 3 h. After 3 h, the number of migrated cells was quantified using CellTiter Glo (Promega). Percentage inhibition values were calculated based on the low and high signal obtained with 0.2% DMSO in chemotaxis medium without and with CCL20, respectively. The relative Log IC50 was determined with GraphPad Prism 9 using a four-parameter dose-response model.

Another assay concerns the target T1, human CCR6 (Homo sapiens, UniProt P51684).
T1 sequence (P51684 1-374): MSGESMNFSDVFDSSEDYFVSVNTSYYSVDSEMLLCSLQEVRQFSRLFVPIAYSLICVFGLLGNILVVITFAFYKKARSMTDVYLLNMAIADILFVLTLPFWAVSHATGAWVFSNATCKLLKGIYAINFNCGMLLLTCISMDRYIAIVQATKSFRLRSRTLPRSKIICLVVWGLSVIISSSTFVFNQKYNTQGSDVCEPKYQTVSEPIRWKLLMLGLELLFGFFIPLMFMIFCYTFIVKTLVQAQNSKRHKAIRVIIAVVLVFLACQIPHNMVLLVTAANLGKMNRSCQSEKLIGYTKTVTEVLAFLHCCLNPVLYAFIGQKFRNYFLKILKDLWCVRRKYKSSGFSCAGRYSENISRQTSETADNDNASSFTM
Kind of assay: Human CCR6-CRE reporter assay. Format: cell-based. Also noted: The second construct contained the open reading frame of human CCR6 in the pUNO1 backbone; host or cells: 293FT cells (transient transfection with TransIT-293). To be noted: 293FT cells transfected with human CCR6 and CRE-luciferase; Forskolin + CCL20, 5 h; relative Log IC50; read-out: CCR6-CRE reporter (converted). The method in brief: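 293FT cells transiently co-transfected with human CCR6 and a CRE-luc2P reporter, used 48 h later. Compounds in medium with 6 μM forskolin and 6 nM CCL20, 0.1% DMSO final, 5 h at 37° C. Luminescence read; relative log IC50 from a four-parameter fit.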
A general note: A reporter such as luciferase makes a cellular process visible.

Turning to `O=c1[nH]nc2ccc(-c3ccc(S(=O)(=O)N4CCC(Nc5ccc(SC(F)(F)F)cn5)CC4)cc3)cn12` [Example 74, 6-(4-{[4-({5-[(trifluoromethyl)sulfanyl]pyridin-2-yl}amino)piperidin-1-yl]sulfonyl}phenyl)-2H,3H-[1,2,4]triazolo[4,3-a]pyridin-3-one], the IC50 with Human CD4+ T cells was 12.6 nM; on human CCR6, 79.4 nM.
